Data reported in patent publication US12478626B2, “Kinase mutants and uses thereof” (SIB Swiss Institute of Bioinformatics, priority 2017, dated 2025).

Target: T1, wild type Zap-70 (Homo sapiens, UniProt P43403)
T1 sequence (P43403 1-619): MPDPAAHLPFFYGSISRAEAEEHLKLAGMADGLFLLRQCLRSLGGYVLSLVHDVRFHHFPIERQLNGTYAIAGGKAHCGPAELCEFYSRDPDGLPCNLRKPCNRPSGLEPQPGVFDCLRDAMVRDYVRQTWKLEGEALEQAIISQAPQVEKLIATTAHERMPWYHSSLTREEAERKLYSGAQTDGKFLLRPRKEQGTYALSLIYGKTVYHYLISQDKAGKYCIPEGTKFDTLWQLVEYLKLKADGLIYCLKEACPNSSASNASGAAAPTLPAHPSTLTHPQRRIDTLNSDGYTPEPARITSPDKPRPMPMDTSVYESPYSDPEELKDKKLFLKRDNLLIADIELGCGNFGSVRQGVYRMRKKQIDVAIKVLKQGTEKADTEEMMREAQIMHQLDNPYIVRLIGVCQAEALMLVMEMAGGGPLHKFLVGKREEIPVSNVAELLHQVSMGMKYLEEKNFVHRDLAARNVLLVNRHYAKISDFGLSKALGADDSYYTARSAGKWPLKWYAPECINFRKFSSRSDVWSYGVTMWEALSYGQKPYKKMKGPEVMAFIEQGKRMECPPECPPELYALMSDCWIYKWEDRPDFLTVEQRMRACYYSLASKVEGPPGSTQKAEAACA
Test: not given
Conditions: Karaman et al.; cited from earlier work

Compound | inhibitory effect on the wild type Zap-70
CS(=O)(=O)CCNCc1ccc(-c2ccc3ncnc(Nc4ccc(OCc5cccc(F)c5)c(Cl)c4)c3c2)o1 [Lapatinib] | no or little inhibitory effect

System: Zap-70 mutants in P116 cells
Test: Inhibition of IL-2 production by TKI at two concentrations, Zap-70 mutants versus WT
Conditions: 500 nM and 1 or […], 24 h and 48 h

Compound | inhibition in production of IL-2 in mutants compared to Zap-70 WT
C=CC(=O)Nc1cccc(Nc2nc(Nc3ccc(N4CCN(C(C)=O)CC4)cc3OC)ncc2C(F)(F)F)c1 [CO-1686] | No significantly different inhibition
C#Cc1cccc(Nc2ncnc3cc(OCCOC)c(OCCOC)cc23)c1 [Erlotinib] | higher in mutants than WT
CS(=O)(=O)CCNCc1ccc(-c2ccc3ncnc(Nc4ccc(OCc5cccc(F)c5)c(Cl)c4)c3c2)o1 [Lapatinib] | increase of cell response
CCOc1cc2ncc(C#N)c(Nc3ccc(OCc4ccccn4)c(Cl)c3)c2cc1NC(=O)/C=C/CN(C)C [Neratinib] | No significantly different inhibition
Crizotinib | increase of cell response
